The source of these data is patent US20210196731A1, “COMPOSITIONS AND METHODS FOR TREATING OCULAR INFLAMMATION AND OCULAR SCARRING” (priority 2018, published 2021).

Holding throughout (type): cell-based, human
For one series, the system named is pSMAD2/3. Description: Western blot of HTCF protein lysate, pSMAD2/3. The conditions noted are these: ASA 500 or 1000 μg/ml, APHS 12 μg/ml, 48 hrs; for ratio of pSMAD2/3 to tSMAD2/3 (proportion of active to total SMAD2/3): AHGFs; for AHGF-induced levels of pSMAD2/3: with or without gentamicin 250 or 500 μg/ml. As for the experimental part: (§1) Cells were lysed in lysis buffer (PhosphoSafe Extraction Reagent, Novagen) containing a protease inhibitor cocktail (P2714, Sigma-Aldrich). Crude protein lysate was quantified using a Pierce BCA protein assay kit (ThermoFisher, Mississauga, ON) and 10 ug from each sample was resolved using a Novex WedgeWell 4-20% tris-glycine gel (Invitrogen). Using an iBlot Gel Transfer Device (IB1001, Invitrogen), the separated protein was transferred to a nitrocellulose membrane (1B301001, iBlot Transfer Stack, Invitrogen) which was then blocked with 5% (w/v) bovine serum albumin (Sigma-Aldrich) in Tris buffered saline (TBST) for 1 hour at room temperature. The membranes were incubated overnight at 4° C. with primary antibody diluted in TBST containing 5% BSA (w/vol). […] Visualization was accomplished by applying WesternBright Quantum chemiluminescent reagent (Advansta, Inc.), with GAPDH used as a protein loading control. Imaging and relative densiometric quantification was accomplished using a ChemiDoc MP System (Bio-Rad Laboratories, Inc.) connected to Image Lab (Version 6, Bio-Rad Laboratories, Inc.).
(In general: In western blotting, separated proteins are transferred to a membrane and probed.)

In series [1] the test system is HTCFs. Description: Cytotoxicity assay, in situ fluorescence-based LIVE/DEAD (fluorescein diacetate/propidium iodide). As for the experimental part: To assess the relative cellular viability between different experimental conditions, an in situ fluorescence-based LIVE/DEAD assay was used. This is a well reported method for estimating the cytotoxicity of an intervention. In brief, two florescent dyes, fluorescein diacetate and propidium iodide, are added to the culture media surrounding the collagen constructs. Fluorescein diacetate is converted into a […] fluorescent molecule by esterases within living cells. Propidium iodide (red) cannot pass through a viable cell's membrane, however it can penetrate disordered areas of dead cell membranes and then intercalates with the nuclear DNA. After a 5 min incubation with the staining solution, collagen constructs were washed with PBS and immediately imaged on a laser-scanning confocal microscope (A1R HD Nikon Instruments Inc., Tokyo, Japan). Ten random frames were taken with the 20× objective per tissue section, with three tissue sections imaged per patient cell line and treatment group. The laser intensity settings were kept consistent between samples to facilitate consistent comparison between replicates.
Using ImageJ, blue signals were counted within every frame and counted as living cells. The same was done for red signals, and these were counted as dead cells. The ratio of living (blue) to total (blue+red) cells was recorded.

Series [2] deals with HTCFs. Description: Collagen Contraction Assay V (AHGF induced, APHS and gentamicin vs mitomycin C). The conditions noted are these: APHS 12 and 24 μg/ml. As for the experimental part:
HTCFs were seeded at a density of 2.5×10^5 cells/mL within an extracellular matrix (ECM) mixture containing 400 ul of rat tail-derived type I collagen (1.8 mg/ml), 80 ul of neutralizing solution (equal parts Waymouth's media (Gibco, CAT. NO: 11220035) and 0.275M NaOH) and 20 ul of HTCF conditioned media (concentrated to 25× to obtain a 1× final concentration within the 500 ul matrix solution). The cell-collagen solution was pipetted gently to ensure homogenous distribution of HTCFs while avoiding the production of air bubbles, then 500 ul were pipetted into each well of a 24-well tray. Collagen constructs were allowed to polymerize at 37 C for 45 minutes before adding low serum culture media containing DMEM, 2% Fetal Bovine Serum (FBS), 1% penicillin/streptomycin (P/S).
Tension was allowed to build up within the tethered matrix at 37 C and 5% CO2 for 72 hours before a sterile spatula was used to detach each collagen construct from the edges of the culture well. Plates were then immediately scanned on a flat bed laser scanner to record baseline area, and then measured periodically for a duration of 4 days. The surface area of each collagen construct was measured using ImageJ (NIH) and standardized against the baseline surface area measurement to express changes in area as a percentage of original surface area. […]

The test system of the next series is αSMA. Description: Western blot of HTCF protein lysate, αSMA. As for the experimental part: as §1
For a further series, the system named is MMP9. Briefly: Western blot of HTCF protein lysate, MMP9. The note with it: ASA 100, 400, 1600 μg/ml, 48 hrs. As for the experimental part:
(§2) Cells were lysed in lysis buffer (PhosphoSafe Extraction Reagent, Novagen) containing a protease inhibitor cocktail (P2714, Sigma-Aldrich). Crude protein lysate was quantified using a Pierce BCA protein assay kit (ThermoFisher, Mississauga, ON) and 10 ug from each sample was resolved using a Novex WedgeWell 4-20% tris-glycine gel (Invitrogen). Using an iBlot Gel Transfer Device (IB1001, Invitrogen), the separated protein was transferred to a nitrocellulose membrane (1B301001, iBlot Transfer Stack, Invitrogen) which was then blocked with 5% (w/v) bovine serum albumin (Sigma-Aldrich) in Tris buffered saline (TBST) for 1 hour at room temperature. The membranes were incubated overnight at 4° C. with primary antibody diluted in TBST containing 5% BSA (w/vol). Primary antibodies used were as follows: collagen 1 (ab138492, Abcam), αSMA (ab5694, Abcam), MMP9 (ab38898, Abcam), PPARγ (sc-7273, SantaCruz Biotechnology), SMAD2/3 (ab63672, Abcam), pSMAD2/3 (ab63399, Abcam) and GAPDH (sc-47724, Santa Cruz Biotechnology, Inc.). […] Imaging and relative densiometric quantification was accomplished using a ChemiDoc MP System (Bio-Rad Laboratories, Inc.) connected to Image Lab (Version 6, Bio-Rad Laboratories, Inc.).

The subject of a further series is PPARγ. Briefly: Western blot of HTCF protein lysate, PPARγ. The conditions noted are these: AHGFs; ASA 100, 400, 1600 μg/ml, 48 hrs. As for the experimental part:
as §2

For series [3], the system named is HTCFs. Briefly: Collagen Contraction Assay IV (AHGF induced, ASA and gentamicin vs mitomycin C). The note with it: ASA 1500 μg/ml and/or gentamicin 750 μg/ml; comparator mitomycin C 0.2 mg/ml for 4 minutes.
Description: Tension was allowed to build up within the tethered matrix at 37 C and 5% CO2 for 72 hours before a sterile spatula was used to detach each collagen construct from the edges of the culture well. Plates were then immediately scanned on a flat bed laser scanner and then periodically for a total of 4 days. The surface area of each collagen construct was measured using ImageJ (NIH) and standardized against the baseline surface area measurement to express changes in area as a percentage of original surface area.
In this modification of the assay, AHGFs are added to all culture media the collagen constructs are exposed to—from casting of the collagen constructs to the conclusion of contraction. The experimental treatment solutions—all also containing AHGFs—were added 30 minutes prior to detaching the collagen constructs from the culture wells and remained until experimental conclusion. […] DMEM w/2% FBS was added for the remainder of the experiment).
[4] abbreviates: ASA 500 or 1000 μg/ml, APHS 12 μg/ml, with or without gentamicin 250 or 500 μg/ml, 48 hrs (FIG. 17B).

Molecules are shown by their SMILES.

On to `CCCCC#CCSc1ccccc1OC(C)=O` [APHS, o-(acetoxyphenyl)hept-2-ynyl sulfide], for which, in the series on pSMAD2/3, the “ratio of pSMAD2/3 to tSMAD2/3 (proportion of active to total SMAD2/3)” value was “significantly reduce the proportion of active to total SMAD2/3 from AHGF-induced levels” and the “AHGF-induced levels of pSMAD2/3” value was “significantly reduced”. For the same compound, in the series with HTCFs [1] (AHGFs, APHS 24 μg/ml, alone or with gentamicin 750 μg/ml), the “relative proportion of living to total cells” value is on record as “unchanged relative to the AHGFs control group”. For the same compound, in the series with HTCFs [2], the “AHGF-induced HTCF-mediated collagen contraction” value is listed as “significantly inhibited AHGF-induced HTCF-mediated collagen contraction”. Further, the “AHGF-induced expression of αSMA” value in the series on αSMA (setting [4]) is on record as “significantly reduced”.
Turning to `CC(=O)Oc1ccccc1C(=O)O` [ASA, acetylsalicylic acid], in the series with MMP9, the “AHGF-induced expression of MMP9” value was “significantly impaired the AHGF-induced expression”. In addition, the “expression of PPARγ” value with PPARγ is recorded as “significantly induce expression of PPARγ”. In addition, the “ratio of pSMAD2/3 to tSMAD2/3 (proportion of active to total SMAD2/3)” value in the series with pSMAD2/3 was “significantly reduce the proportion of active to total SMAD2/3 from AHGF-induced levels”. The “AHGF-induced levels of pSMAD2/3” value in the series on pSMAD2/3 was “significantly reduced”. Further, in the series with HTCFs [3], the “AHGF induced, HTCF-mediated collagen contraction” value is “significantly negate the effects of the AHGFs on HTCF-mediated collagen contraction, albeit significantly less than the current ophthalmic clinical gold standard”. Also, the “relative proportion of living to total cells” value in the series on HTCFs [1] (AHGFs, ASA 1500 μg/ml, with or without gentamicin 750 μg/ml, mitomycin C 0.2 mg/ml for 1, 2 or 4 minutes) is “unchanged relative to vehicle control”; in the series on HTCFs [1] (Collagen Contraction Assay III conditions, ASA 1000 or 1500 μg/ml, with or without gentamicin, four days), “unchanged relative to vehicle control”. The “AHGF-induced expression of αSMA” value is recorded as “significantly impaired the AHGF-induced expression of αSMA” with αSMA (ASA 100, 400, 1600 μg/ml, 48 hrs (FIG. 16)) and “significantly reduced” in the series with αSMA (setting [4]).
